From PMC2792609, “Effect of methomyl on hepatic mixed function oxidases in rats” (Indian Journal of Pharmacology, 2008)

Experiments:
[1] = tested on: Aminopyrine N-demethylase; test: Hepatic microsomal aminopyrine N-demethylase activity; type: in vivo, rat
Experimental: (§1) Adult male rats (weighing 200-230 g) were divided into four groups of six animals each. Group 1 received an equivalent amount of saline and served as control. Animals from group 2, 3, and 4 were given methomyl 1, 2, and 4 mg/kg body weight i.p. respectively, between 8: 00 a.m. and 9:00 a.m., for three consecutive days. In the second set of experiments, adult male rats were divided into four groups. Animals from group 2, 3, and 4 were injected with 4 mg/kg body weight methomyl for one, three, and five successive days. The volume injected into the rats of body weight 200 g was 1 ml. In another experiment, adult female rats and old male rats (weighing 350-450 g, 8 months old) were divided into two groups of six animals each. Group 2 of each category received methomyl (4 mg/kg body weight, i.p., for three successive days), and group 1 of each category received an equivalent amount of saline and served as the control group.
(§2) The rats were sacrificed by cervical dislocation, 24 hours after the last dose. Their livers were perfused in situ with ice cold 1.15% KCl containing 0.05 mM EDTA, rapidly excised, blotted dry, weighed, minced and homogenized with two volumes of ice cold 0.25 M sucrose solution, in a Potter-Elvehjem type homogenizer. The homogenate was centrifuged at 10,000 × g for 10 min, in a refrigerated centrifuge (REMI C-24). The microsomes were isolated by the procedure described by of Cinti et al.[4] The microsomal pellet was suspended in phosphate buffer (0.1 M, pH 7.4) and the suspension was used for the microsomal enzyme assays. Microsomal protein content was measured by the Biuret method, using bovine serum albumin as the standard.[5]
(§3) The microsomal electron transport components (cytochrome P450 and cytochrome b5) were determined using Hitachi UV-Visible double beam recording spectrophotometer, by the procedure of Omura and Sato.[67] Cytochrome c reductase activity was determined using the method recommended by Masters et al.[8] Aminopyrine N-demethylase activity was assayed according to the procedure described by Schenkman et al.[9] Formaldehyde liberated during N-demethylation was estimated by the procedure described by Nash.[10] Aniline hydroxylase assay was performed using the procedure reported by Govindwar and Dalvi.[11]

[2] = tested on: alanine aminotransferase (SGPT); test: Serum alanine aminotransferase (SGPT) activity; type: in vivo, rat; conditions: for Increased activity of alanine aminotransferase: 3 days
Experimental: (§4) Adult male rats (weighing 200-230 g) were divided into four groups of six animals each. Group 1 received an equivalent amount of saline and served as control. Animals from group 2, 3, and 4 were given methomyl 1, 2, and 4 mg/kg body weight i.p. respectively, between 8: 00 a.m. and 9:00 a.m., for three consecutive days. In the second set of experiments, adult male rats were divided into four groups. Animals from group 2, 3, and 4 were injected with 4 mg/kg body weight methomyl for one, three, and five successive days. The volume injected into the rats of body weight 200 g was 1 ml. […]
(§5) Alanine aminotransferase and aspartate aminotransferase activity was measured using the Reitman and Frankel[12] method. Alkaline phosphatase activity was measured using Span diagnostic kits.[13] Cholinesterase activity was measured using the kinetic test method of Knedel et al.[14]

Male Wistar rats = conditions: 4 mg/kg; cited from earlier work
[3] = tested on: alanine aminotransferase (SGPT); test: Serum alanine aminotransferase (SGPT) activity; type: in vivo, rat; conditions: female rats; for SGPT: for 3 days
Cytochrome c reductase = test: Hepatic microsomal cytochrome c reductase activity; type: in vivo, rat
Experimental: as §1, §2, §3

red cell ChE = conditions: methomyl aerosol, male rats, repeated inhalation; cited from earlier work
[4] = tested on: aspartate aminotransferase (SGOT); test: Serum aspartate aminotransferase (SGOT) activity; type: in vivo, rat; conditions: for Increased activity of aspartate aminotransferase: 3 days
Experimental: as §4, §5

cytochrome b5 = test: Hepatic microsomal cytochrome b5 level; type: in vivo, rat
Experimental: as §1, §2, §3

Serum cholinesterase [5] = molecular target: T1, Serum cholinesterase (Rattus norvegicus, UniProt Q9JKC1); test: Serum cholinesterase activity; type: in vivo; conditions: female rats; for Serum cholinesterase: for 3 days; for depression of acetyl cholinesterase activity: 3 days
T1 construct: from tissue; host or cells: rat serum
T1 sequence (Q9JKC1 24-597): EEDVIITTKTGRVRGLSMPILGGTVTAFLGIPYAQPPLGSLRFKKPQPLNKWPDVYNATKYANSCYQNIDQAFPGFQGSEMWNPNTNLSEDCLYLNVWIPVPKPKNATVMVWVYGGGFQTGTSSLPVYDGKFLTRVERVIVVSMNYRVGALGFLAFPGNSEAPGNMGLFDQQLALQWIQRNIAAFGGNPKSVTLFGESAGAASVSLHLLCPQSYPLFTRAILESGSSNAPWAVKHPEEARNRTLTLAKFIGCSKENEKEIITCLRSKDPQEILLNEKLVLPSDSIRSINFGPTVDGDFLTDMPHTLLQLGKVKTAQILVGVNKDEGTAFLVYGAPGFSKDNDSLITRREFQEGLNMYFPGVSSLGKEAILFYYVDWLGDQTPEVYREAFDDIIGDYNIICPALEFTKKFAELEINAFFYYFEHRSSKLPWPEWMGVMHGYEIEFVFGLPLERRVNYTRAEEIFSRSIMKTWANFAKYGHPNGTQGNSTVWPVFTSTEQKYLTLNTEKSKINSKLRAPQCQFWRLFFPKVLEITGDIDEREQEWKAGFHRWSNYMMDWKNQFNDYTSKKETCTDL

Serum cholinesterase [6] = molecular target: T1, Serum cholinesterase; test: Serum cholinesterase activity; type: in vivo; conditions: for depression of acetyl cholinesterase activity: 3 days
Experimental: as §4, §5

old male rats = conditions: cited from earlier work
[7] = tested on: aspartate aminotransferase (SGOT); test: Serum aspartate aminotransferase (SGOT) activity; type: in vivo, rat; conditions: female rats; for SGOT: for 3 days
mixed function oxidases = conditions: quails; cited from earlier work
[8] = adult female rat, 4 mg/kg i.p., three days, vs control
[9] = adult female rats, 4 mg/kg body weight, i.p., three days
[10] = adult male rats, 1 mg/kg i.p., for 3 days
[11] = adult male rats, 2 mg/kg i.p., for 3 days
[12] = adult male rats, 4 mg/kg i.p., 3 days, vs control
[13] = adult male rats, 4 mg/kg i.p., for 3 days
[14] = adult rats, 4 mg/kg i.p., 1 day of treatment
[15] = adult rats, 4 mg/kg i.p., 3 days of treatment
[16] = adult rats, 4 mg/kg i.p., 5 days of treatment
[17] = old male rat, 4 mg/kg i.p., three days, vs control
[18] = old male rats, 4 mg/kg body weight, i.p., three days
[19] = female rats, 4 mg/kg body weight i.p., for 3 days
[20] = male rats, 1 mg/kg body weight i.p., for three days
[21] = male rats, 2 mg/kg body weight i.p., for three days
[22] = male rats, 4 mg/kg body weight i.p., for three days
[23] = adult male rats, 4 mg/kg i.p., one, three and five days

## CNC(=O)ON=C(C)SC [methomyl, S-methyl-N-(methyl carbomyl)-thioacetimidate]
[1]; [8]
  decrease in the activity of aminopyrine N-demethylase: 26%
[1]; [9]
  Aminopyrine N-demethylase: 3.30 nmole of formaldehyde liberated/min/mg microsomal protein
[1]; [10]
  Aminopyrine N-demethylase: 3.2 nmole of formaldehyde liberated/min/mg microsomal protein
[1]; adult male rats, 2 mg/kg i.p., 3 days, vs control
  decrease in the activity of aminopyrine N-demethylase: 50%
[1]; [11]
  Aminopyrine N-demethylase: 1.9 nmole of formaldehyde liberated/min/mg microsomal protein
[1]; [12]
  decrease in the activity of aminopyrine N-demethylase: 40%
[1]; adult male rats, 4 mg/kg i.p., five days, vs control
  decrease in activity of aminopyrine N-demethylase: 31%
[1]; [13]
  Aminopyrine N-demethylase: 2.3 nmole of formaldehyde liberated/min/mg microsomal protein
[1]; adult male rats, 4 mg/kg i.p., one day, vs control
  decrease in activity of aminopyrine N-demethylase: 31%
[1]; adult male rats, 4 mg/kg i.p., three days, vs control
  decrease in activity of aminopyrine N-demethylase: 51%
[1]; [14]
  Aminopyrine N-demethylase: 3.11 nmole of formaldehyde liberated/min/mg microsomal protein
[1]; [15]
  Aminopyrine N-demethylase: 2.20 nmole of formaldehyde liberated/min/mg microsomal protein
[1]; [16]
  Aminopyrine N-demethylase: 3.09 nmole of formaldehyde liberated/min/mg microsomal protein
[1]; [17]
  decrease in aminopyrine N-demethylase: 50%
[1]; [18]
  Aminopyrine N-demethylase: 2.26 nmole of formaldehyde liberated/min/mg microsomal protein
[2]; [19]
  SGPT: 50.0 u/l
[2]; female rats, 4 mg/kg i.p.
  Increased activity of alanine aminotransferase: 24%
[2]; [20]
  SGPT: 47.3 u/l
[2]; [21]
  SGPT: 50.0 u/l
[2]; male rats, 2 mg/kg i.p.
  Increased activity of alanine aminotransferase: 12%
[2]; [22]
  SGPT: 53.6 u/l
[2]; male rats, 4 mg/kg i.p.
  Increased activity of alanine aminotransferase: 20%
Male Wistar rats
  duration of maximum severity: about 30 min
  time to development of signs of toxicity: ≤ 2 min
  time to maximum severity (muscle fasciculation and convulsions): 5 to 10 min
  time until free from obvious toxicity: ≤ 90 min
[3]; 1 mg/kg body weight i.p.
  SGPT: 43.0 u/l
[3]; 2 mg/kg body weight i.p.
  SGPT: 46.0 u/l
[3]; 2 mg/kg i.p., 3 days
  Increased activity of alanine aminotransferase: 14%
Cytochrome c reductase; [8]
  decrease in the activity of cytochrome c reductase: 42%
Cytochrome c reductase; [9]
  Cytochrome c reductase: 23.07 nmole of cytochrome c reduced/min/mg microsomal protein
Cytochrome c reductase; [10]
  Cytochrome c reductase: 35.73 nmole of cytochrome c reduced/min/mg microsomal protein
Cytochrome c reductase; [11]
  Cytochrome c reductase: 32.80 nmole of cytochrome c reduced/min/mg microsomal protein
Cytochrome c reductase; [12]
  increase in cytochrome c reductase activity: 14%
Cytochrome c reductase; [13]
  Cytochrome c reductase: 36.93 nmole of cytochrome c reduced/min/mg microsomal protein
Cytochrome c reductase; [23]
  change in the activity of cytochrome c reductase: No significant change
Cytochrome c reductase; [14]
  Cytochrome c reductase: 31.3 nmole of cytochrome c reduced/min/mg microsomal protein
Cytochrome c reductase; [15]
  Cytochrome c reductase: 26.7 nmole of cytochrome c reduced/min/mg microsomal protein
Cytochrome c reductase; [16]
  Cytochrome c reductase: 24.2 nmole of cytochrome c reduced/min/mg microsomal protein
Cytochrome c reductase; [17]
  decrease in cytochrome c reductase: 7%
Cytochrome c reductase; [18]
  Cytochrome c reductase: 33.30 nmole of cytochrome c reduced/min/mg microsomal protein
Red cell ChE
  effect on red cell ChE: no cumulative effect
[4]; [19]
  SGOT: 51.0 u/l
[4]; female rats, 4 mg/kg i.p.
  Increased activity of aspartate aminotransferase: 39%
[4]; [20]
  SGOT: 35.7 u/l
[4]; [21]
  SGOT: 37.9 u/l
[4]; male rats, 2 mg/kg i.p.
  Increased activity of aspartate aminotransferase: 9%
[4]; [22]
  SGOT: 40.9 u/l
[4]; male rats, 4 mg/kg i.p.
  Increased activity of aspartate aminotransferase: 8%
Cytochrome b5; [8]
  decrease in the level of cytochrome b5: 21%
Cytochrome b5; [9]
  Cytochrome b5: 0.15 nmole/mg protein
Cytochrome b5; [10]
  Cytochrome b5: 0.16 nmole/mg protein
Cytochrome b5; [11]
  Cytochrome b5: 0.20 nmole/mg protein
Cytochrome b5; [13]
  Cytochrome b5: 0.19 nmole/mg protein
Cytochrome b5; [23]
  change in cytochrome b5: No significant change
Cytochrome b5; adult male rats, all the three doses (1, 2 and 4 mg/kg i.p., 3 days)
  change in cytochrome b5: No significant change
Cytochrome b5; [14]
  Cytochrome b5: 0.25 nmole/mg protein
Cytochrome b5; [15]
  Cytochrome b5: 0.29 nmole/mg protein
Cytochrome b5; [16]
  Cytochrome b5: 0.28 nmole/mg protein
Cytochrome b5; [17]
  decrease in cytochrome b5: 51%
Cytochrome b5; [18]
  Cytochrome b5: 0.20 nmole/mg protein
Serum cholinesterase [5]; 1 mg/kg body weight i.p.
  Serum cholinesterase: 1343 u/l
Serum cholinesterase [5]; 1 mg/kg i.p.
  depression of acetyl cholinesterase activity: 46%
Serum cholinesterase [5]; 2 mg/kg body weight i.p.
  Serum cholinesterase: 1193 u/l
Serum cholinesterase [5]; 2 mg/kg i.p.
  depression of acetyl cholinesterase activity: 52%
Serum cholinesterase [6]; [19]
  Serum cholinesterase: 844 u/l
Serum cholinesterase [6]; female rats, 4 mg/kg i.p.
  depression of acetyl cholinesterase activity: 66%
Serum cholinesterase [6]; [20]
  Serum cholinesterase: 1120 u/l
Serum cholinesterase [6]; male rats, 1 mg/kg i.p.
  depression of acetyl cholinesterase activity: 15%
Serum cholinesterase [6]; [21]
  Serum cholinesterase: 949 u/l
Serum cholinesterase [6]; male rats, 2 mg/kg i.p.
  depression of acetyl cholinesterase activity: 28%
Serum cholinesterase [6]; [22]
  Serum cholinesterase: 848 u/l
Serum cholinesterase [6]; male rats, 4 mg/kg i.p.
  depression of acetyl cholinesterase activity: 35%
Old male rats
  hemoglobin content, hematocrit value, erythrocyte, and leucocyte count: Decreased
[7]; 1 mg/kg body weight i.p.
  SGOT: 43.5 u/l
[7]; 2 mg/kg body weight i.p.
  SGOT: 46.6 u/l
[7]; 2 mg/kg i.p., 3 days
  Increased activity of aspartate aminotransferase: 26%
Mixed function oxidases
  activity of mixed function oxidases: inhibited
